Test results: ChEMBL document CHEMBL1201862, “PubChem BioAssay data set” (2004)
Activity calls are given as the source filed them.

Tests used:
[1] = Counterscreen for antagonists of the human trace amine associated receptor 1 (hTAAR1): Fluorescence-based cell-based high throughput dose response assay to identify nonselective Ga16 antagonists.; type: functional
[2] = molecular target: T1, Trace amine-associated receptor 1 (Homo sapiens, UniProt Q96RJ0); assay: Fluorescence-based cell-based high throughput dose response assay to identify antagonists of the human trace amine associated receptor 1 (TAAR1).; type: functional
T1 sequence (Q96RJ0 whole entry): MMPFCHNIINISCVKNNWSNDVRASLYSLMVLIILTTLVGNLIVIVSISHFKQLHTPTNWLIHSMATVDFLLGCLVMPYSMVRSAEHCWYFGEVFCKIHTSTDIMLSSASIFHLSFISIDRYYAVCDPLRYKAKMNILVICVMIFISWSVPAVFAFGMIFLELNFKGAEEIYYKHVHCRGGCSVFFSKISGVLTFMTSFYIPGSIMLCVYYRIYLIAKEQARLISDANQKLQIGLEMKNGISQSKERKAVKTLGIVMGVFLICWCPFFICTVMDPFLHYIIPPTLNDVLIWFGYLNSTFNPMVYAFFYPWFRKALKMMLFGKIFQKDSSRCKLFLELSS

[3] = molecular target: Ras and Rab interactor 1/Tyrosine-protein kinase ABL1 (Homo sapiens, UniProt P00519+Q13671); type: functional;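 further: biochemical TR-FRET dose-response test measuring inhibition of binding between Rin1 and Abl proteins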
[4] = molecular target: T1, Trace amine-associated receptor 1; assay: Counterscreen for antagonists of the human trace amine associated receptor 1 (hTAAR1): Fluorescence-based cell-based high throughput dose response assay to identify TAAR1 Agonists.; type: functional
[5] = Counterscreen for […] of the human trace amine associated receptor 1 (TAAR1): Fluorescence-based cell-based high throughput dose response assay to identify nonselective Ga16 agonists.; type: functional
cells [6] = type: functional, cell-based
cells [7] = type: functional, cell-based; remark: listed apart in the source
[8] = molecular target: Fructose-bisphosphate aldolase (Mycobacterium tuberculosis, UniProt P9WQA3); assay: Fluorescence-based biochemical high throughput dose response assay for inhibitors of the fructose-bisphosphate aldolase (FBA) of M. tuberculosis.; type: functional
[9] = HepG2 cell cytotoxicity, dose response, cytotoxicity control, ATP luminescence, cherry-pick, activator set 2 (AID 1053143); type: functional, cell-based
Beta-lactamase [10] = molecular target: T2, Beta-lactamase (Pseudomonas aeruginosa, UniProt Q79MP6); assay: […] counterscreen for selective VIM-2 inhibitors: dose response biochemical high throughput screening assay to identify inhibitors of IMP-1 metallo-beta-lactamase.
Beta-lactamase [11] = molecular target: T2, Beta-lactamase; assay: IMP-1 metallo-beta-lactamase inhibitors, dose response, selectivity assay for VIM-2 inhibitor project, biochemical, epi-absorbance (AID 1920)
Beta-lactamase [12] = molecular target: Beta-lactamase (Salmonella choleraesuis (strain SC-B67), UniProt Q5J463); assay: Epi-absorbance-based counterscreen for selective VIM-2 inhibitors: dose response biochemical high throughput screening assay to identify inhibitors of TEM-1 serine-beta-lactamase.
Bcl-2-related protein A1 [13] = molecular target: T3, Bcl-2-related protein A1 (Mus musculus, UniProt Q07440); assay: Bfl-1 binding inhibitors, SAR follow-up, biochemical, fluorescence polarization (AID 1070)
T3 sequence (Q07440 whole entry): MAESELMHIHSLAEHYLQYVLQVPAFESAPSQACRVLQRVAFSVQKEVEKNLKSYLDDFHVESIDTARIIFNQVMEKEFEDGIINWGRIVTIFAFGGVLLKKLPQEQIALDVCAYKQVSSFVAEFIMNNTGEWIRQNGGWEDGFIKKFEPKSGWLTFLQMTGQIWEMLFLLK

Bcl-2-related protein A1 [14] = molecular target: T3, Bcl-2-related protein A1; assay: Bfl-1 inhibitors blocking BH3 peptide binding, confirmation, biochemical, TR-FRET, mouse Bfl-1 (AID 621);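 further: TR-FRET binding of GST-Bfl-1 to FITC-labelled Bid peptide via terbium antibody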
cells [15] = type: functional, cell-based; remark: listed apart in the source
[16] = molecular target: T1, Trace amine-associated receptor 1; assay: Counterscreen for agonists of the human trace amine associated receptor 1 (hTAAR1): Fluorescence-based cell-based high throughput dose response assay to identify hTAAR1 agonist that also desensitize TAAR1 receptor response.; type: functional
cells [17] = type: functional, cell-based; remark: listed apart in the source
[18] = molecular target: T1, Trace amine-associated receptor 1; assay: Fluorescence-based cell-based high throughput dose response assay to identify agonists of the human trace amine associated receptor 1 (TAAR1).; type: functional
[19] = T. cruzi growth inhibition in host cells, dose response, cell-based, plate reader, dry powder, set 2 (AID 652275); type: functional
[20] = molecular target: T4, Sentrin-specific protease 6 (Homo sapiens, UniProt Q9GZR1); type: functional;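 further: Luminescence-based dose-response confirmatory assay of SENP6 inhibition, following up an ultra-high-throughput screen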
T4 sequence (Q9GZR1 whole entry): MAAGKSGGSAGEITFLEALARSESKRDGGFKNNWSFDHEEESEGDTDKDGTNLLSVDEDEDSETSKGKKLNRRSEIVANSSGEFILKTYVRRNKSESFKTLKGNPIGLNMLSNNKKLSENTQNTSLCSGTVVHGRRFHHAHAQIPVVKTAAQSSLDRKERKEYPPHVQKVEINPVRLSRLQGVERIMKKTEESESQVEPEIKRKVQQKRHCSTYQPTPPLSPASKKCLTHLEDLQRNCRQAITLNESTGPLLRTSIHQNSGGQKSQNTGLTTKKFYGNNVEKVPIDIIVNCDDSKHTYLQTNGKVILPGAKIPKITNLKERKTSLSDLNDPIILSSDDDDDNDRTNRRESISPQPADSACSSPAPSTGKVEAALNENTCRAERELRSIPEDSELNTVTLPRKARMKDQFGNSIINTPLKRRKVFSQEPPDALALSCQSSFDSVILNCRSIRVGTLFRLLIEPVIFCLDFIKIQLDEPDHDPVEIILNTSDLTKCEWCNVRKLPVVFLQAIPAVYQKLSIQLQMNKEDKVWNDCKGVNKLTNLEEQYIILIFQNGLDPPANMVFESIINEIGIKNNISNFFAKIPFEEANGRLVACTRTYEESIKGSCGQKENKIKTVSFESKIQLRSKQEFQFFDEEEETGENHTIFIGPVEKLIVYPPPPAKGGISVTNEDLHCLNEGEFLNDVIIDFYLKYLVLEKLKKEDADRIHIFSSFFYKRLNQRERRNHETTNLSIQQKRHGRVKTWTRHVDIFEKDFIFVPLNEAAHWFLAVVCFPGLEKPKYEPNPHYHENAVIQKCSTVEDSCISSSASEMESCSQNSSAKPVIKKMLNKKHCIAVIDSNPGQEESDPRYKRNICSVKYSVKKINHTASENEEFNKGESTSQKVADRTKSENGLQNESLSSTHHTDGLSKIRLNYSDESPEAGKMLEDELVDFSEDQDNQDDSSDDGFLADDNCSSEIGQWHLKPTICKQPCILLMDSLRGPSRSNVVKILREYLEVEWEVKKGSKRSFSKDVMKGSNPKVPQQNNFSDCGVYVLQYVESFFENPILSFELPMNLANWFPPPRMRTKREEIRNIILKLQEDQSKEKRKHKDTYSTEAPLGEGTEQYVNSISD

Caspase-3 = molecular target: T5, Caspase-3 (Homo sapiens, UniProt P42574); type: functional;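 further: Dose-response selectivity test against caspase-3 for candidate inhibitors of sentrin-specific proteases (SENPs)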
T5 sequence (P42574 whole entry): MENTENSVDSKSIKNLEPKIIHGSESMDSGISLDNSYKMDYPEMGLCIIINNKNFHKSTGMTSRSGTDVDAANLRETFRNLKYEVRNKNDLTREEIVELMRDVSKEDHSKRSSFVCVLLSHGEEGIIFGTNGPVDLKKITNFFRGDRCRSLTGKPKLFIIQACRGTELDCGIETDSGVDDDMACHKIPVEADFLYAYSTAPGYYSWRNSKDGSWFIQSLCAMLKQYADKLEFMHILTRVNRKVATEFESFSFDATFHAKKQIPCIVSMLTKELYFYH

[21] = molecular target: T6, Sentrin-specific protease 7 (Homo sapiens, UniProt Q9BQF6); type: functional;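 further: Luminescence-based dose-response confirmation of ultra-high-throughput screening hits, measuring inhibition of SENP7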
T6 sequence (Q9BQF6 whole entry): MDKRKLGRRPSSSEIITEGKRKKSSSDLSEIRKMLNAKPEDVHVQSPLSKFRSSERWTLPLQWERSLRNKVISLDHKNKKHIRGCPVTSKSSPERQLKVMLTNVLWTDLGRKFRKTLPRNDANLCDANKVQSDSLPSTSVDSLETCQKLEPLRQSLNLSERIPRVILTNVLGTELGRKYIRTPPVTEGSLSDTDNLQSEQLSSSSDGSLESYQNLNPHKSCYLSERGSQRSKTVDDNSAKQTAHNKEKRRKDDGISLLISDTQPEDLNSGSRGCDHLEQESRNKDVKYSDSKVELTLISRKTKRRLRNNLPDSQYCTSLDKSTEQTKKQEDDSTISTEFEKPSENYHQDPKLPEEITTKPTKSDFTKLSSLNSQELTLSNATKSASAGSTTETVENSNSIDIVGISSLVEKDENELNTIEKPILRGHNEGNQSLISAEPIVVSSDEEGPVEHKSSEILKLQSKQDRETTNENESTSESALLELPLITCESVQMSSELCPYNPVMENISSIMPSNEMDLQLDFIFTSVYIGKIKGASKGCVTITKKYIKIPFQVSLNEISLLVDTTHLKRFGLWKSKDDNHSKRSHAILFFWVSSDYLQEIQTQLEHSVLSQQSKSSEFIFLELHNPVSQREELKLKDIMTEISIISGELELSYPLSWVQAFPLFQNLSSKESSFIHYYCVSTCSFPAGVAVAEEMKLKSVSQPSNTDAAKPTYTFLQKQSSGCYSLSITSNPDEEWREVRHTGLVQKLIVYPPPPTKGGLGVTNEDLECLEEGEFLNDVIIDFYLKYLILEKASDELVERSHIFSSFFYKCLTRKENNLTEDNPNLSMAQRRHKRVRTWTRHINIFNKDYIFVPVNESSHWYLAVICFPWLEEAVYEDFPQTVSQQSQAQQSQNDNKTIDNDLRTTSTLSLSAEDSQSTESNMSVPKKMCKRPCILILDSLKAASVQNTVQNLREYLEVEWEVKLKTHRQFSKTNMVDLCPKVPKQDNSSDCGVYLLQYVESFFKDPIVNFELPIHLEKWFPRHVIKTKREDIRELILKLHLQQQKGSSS

[22] = molecular target: T7, Sentrin-specific protease 8 (Homo sapiens, UniProt Q96LD8); type: functional;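 further: luminescence read-out of SENP8 inhibition, dose-response confirmation following an ultra-high-throughput screen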
T7 sequence (Q96LD8 whole entry): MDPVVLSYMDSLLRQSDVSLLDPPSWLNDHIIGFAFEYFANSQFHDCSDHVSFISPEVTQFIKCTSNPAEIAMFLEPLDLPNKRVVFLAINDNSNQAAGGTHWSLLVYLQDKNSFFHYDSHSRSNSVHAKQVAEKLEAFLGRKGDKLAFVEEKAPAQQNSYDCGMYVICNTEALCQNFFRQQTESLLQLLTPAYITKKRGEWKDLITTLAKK

[23] = cytotoxicity in OVCAR8 ovarian cancer cells, dose response, PAX8 project, cell-based, plate reader, dry powder samples (AID 743197); type: functional; conditions: OVCAR-8
Paired box protein Pax-8 = Paired box protein Pax-8 (Homo sapiens, UniProt Q06710); assay: inhibitors of PAX8-driven TPO luciferase reporter, dose response, RMG-I cells, cherry-pick (AID 687027); type: functional, cell-based;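 further: luciferase reporter driven by Pax8 target thyroperoxidase promoter measured by SteadyGlo luminescence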
Chain of Paired box protein Pax-8 (Q06710 whole entry): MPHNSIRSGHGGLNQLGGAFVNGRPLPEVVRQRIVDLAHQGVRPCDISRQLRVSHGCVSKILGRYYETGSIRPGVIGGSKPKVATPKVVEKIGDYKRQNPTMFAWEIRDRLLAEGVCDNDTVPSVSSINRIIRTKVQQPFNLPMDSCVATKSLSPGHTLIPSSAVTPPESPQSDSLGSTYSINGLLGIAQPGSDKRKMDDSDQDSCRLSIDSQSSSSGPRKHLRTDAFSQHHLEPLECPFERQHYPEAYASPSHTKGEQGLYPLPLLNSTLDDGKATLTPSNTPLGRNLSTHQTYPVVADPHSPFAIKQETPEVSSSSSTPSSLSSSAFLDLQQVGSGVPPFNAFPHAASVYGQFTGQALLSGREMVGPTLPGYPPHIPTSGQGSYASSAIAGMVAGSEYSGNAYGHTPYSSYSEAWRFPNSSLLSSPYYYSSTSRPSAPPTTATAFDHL

T2 sequence (Q79MP6 whole entry): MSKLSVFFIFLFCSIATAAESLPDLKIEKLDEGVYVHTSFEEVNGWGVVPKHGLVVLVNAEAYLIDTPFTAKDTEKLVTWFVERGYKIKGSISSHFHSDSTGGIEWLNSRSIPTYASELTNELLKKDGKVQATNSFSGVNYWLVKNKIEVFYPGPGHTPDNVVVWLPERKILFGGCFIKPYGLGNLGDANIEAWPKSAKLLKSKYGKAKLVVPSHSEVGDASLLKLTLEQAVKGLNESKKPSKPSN
Chain of Fructose-bisphosphate aldolase (P9WQA3 whole entry): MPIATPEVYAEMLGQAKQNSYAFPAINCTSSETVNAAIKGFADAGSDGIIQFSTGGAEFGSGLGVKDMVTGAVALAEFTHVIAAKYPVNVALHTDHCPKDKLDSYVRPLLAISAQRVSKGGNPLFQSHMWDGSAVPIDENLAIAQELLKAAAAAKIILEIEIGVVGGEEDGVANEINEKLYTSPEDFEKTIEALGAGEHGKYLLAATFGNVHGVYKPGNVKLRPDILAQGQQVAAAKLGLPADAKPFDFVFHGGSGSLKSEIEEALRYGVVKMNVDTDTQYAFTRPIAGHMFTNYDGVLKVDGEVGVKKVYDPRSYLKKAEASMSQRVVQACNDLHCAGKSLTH
Chain of Beta-lactamase (Salmonella choleraesuis (strain SC-B67), UniProt Q5J463) (Q5J463 whole entry): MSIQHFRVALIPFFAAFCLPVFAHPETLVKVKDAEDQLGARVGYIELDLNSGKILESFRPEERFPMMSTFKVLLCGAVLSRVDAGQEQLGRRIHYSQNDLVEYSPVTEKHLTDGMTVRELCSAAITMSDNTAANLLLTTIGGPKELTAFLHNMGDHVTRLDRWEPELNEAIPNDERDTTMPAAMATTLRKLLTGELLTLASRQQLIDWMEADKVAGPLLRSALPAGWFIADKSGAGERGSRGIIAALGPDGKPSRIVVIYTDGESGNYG
Chain of Ras and Rab interactor 1/Tyrosine-protein kinase ABL1 (P00519 whole entry): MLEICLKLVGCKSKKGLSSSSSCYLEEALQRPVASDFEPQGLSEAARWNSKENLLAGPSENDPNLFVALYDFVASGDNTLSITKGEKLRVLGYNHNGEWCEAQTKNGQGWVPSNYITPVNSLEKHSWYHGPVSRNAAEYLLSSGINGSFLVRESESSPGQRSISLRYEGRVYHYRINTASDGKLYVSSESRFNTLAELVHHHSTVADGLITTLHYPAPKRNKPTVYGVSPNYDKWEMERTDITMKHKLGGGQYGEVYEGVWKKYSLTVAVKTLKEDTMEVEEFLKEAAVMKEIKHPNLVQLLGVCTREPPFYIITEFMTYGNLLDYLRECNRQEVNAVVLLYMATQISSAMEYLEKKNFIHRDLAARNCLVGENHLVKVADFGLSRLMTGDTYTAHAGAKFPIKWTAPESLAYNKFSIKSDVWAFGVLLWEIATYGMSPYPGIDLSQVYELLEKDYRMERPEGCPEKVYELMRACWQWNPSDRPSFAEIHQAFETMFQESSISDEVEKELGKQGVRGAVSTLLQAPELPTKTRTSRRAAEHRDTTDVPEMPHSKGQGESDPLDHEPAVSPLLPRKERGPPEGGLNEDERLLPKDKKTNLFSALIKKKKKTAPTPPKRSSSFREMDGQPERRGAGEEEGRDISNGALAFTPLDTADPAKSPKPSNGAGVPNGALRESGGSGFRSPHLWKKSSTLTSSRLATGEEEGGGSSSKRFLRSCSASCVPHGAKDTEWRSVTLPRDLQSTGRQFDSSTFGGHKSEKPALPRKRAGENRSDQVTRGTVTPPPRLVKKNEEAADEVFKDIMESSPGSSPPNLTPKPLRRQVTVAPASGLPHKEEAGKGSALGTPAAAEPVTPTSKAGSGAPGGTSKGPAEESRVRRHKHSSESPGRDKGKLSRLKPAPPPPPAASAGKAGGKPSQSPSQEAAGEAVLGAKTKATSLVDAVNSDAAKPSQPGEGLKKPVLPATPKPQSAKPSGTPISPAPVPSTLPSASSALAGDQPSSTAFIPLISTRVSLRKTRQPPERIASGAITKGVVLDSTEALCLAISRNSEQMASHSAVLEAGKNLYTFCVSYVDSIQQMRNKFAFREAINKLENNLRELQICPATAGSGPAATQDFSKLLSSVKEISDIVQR
Chain of Ras and Rab interactor 1/Tyrosine-protein kinase ABL1 (Q13671 whole entry): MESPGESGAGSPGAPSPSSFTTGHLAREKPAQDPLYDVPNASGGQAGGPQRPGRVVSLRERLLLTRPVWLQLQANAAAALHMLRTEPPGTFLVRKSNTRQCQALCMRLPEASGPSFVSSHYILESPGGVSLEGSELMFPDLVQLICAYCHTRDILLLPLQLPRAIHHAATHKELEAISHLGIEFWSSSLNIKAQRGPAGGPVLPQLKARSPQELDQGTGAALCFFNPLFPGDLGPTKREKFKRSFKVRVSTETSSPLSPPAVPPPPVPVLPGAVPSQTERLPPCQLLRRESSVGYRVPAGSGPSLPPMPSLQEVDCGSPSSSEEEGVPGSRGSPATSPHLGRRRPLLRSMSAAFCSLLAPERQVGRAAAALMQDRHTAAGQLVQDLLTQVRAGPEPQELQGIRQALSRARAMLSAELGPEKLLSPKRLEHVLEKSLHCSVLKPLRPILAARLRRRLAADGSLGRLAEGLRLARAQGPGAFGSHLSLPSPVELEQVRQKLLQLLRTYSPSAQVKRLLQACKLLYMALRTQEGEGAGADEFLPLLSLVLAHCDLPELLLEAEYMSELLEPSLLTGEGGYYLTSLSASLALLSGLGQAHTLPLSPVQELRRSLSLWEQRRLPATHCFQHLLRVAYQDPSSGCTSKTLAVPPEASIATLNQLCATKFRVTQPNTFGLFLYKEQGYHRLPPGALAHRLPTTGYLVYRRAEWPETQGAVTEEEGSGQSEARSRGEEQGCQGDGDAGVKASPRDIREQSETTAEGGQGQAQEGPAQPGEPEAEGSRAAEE

COc1ccc(-n2nnnc2C(C2CC2)N2CCC(n3c(O)nc4ccccc43)CC2)cc1 (stereo not drawn)
IC50 [1]: > 29.9 µM (inactive)
IC50 [2]: > 9.96 µM (active)
IC50 [3]: 19.8 µM (inactive)
EC50 [4]: 22.4 µM (inactive)
EC50 [5]: > 29.9 µM (inactive)

CCCCn1c(=O)[nH]c(=O)c2c(C(=O)OCC)cc(-c3cccs3)nc21
EC50 (cells [6]): > 350 µM (not active)
EC50 (cells [7]): > 350 µM (not active)
IC50 [8]: 0.582 µM (active)

CCOc1ccc2oc(C(=O)Nc3cc(C)ccn3)c(C)c2c1
AC50 [9]: 26 µM (active)

CC(C)Cn1c(S)nnc1-c1ccco1
IC50 (Beta-lactamase [10]): > 59.6 µM (inactive)
IC50 (Beta-lactamase [11]): > 59.6 µM (inactive)
IC50 (Beta-lactamase [12]): > 59.6 µM (inactive)

COc1ncccc1-c1nnn(-c2ccc(F)cc2)n1
IC50 (Bcl-2-related protein A1 [13]): > 100 µM (not active)
IC50 (Bcl-2-related protein A1 [14]): > 100 µM (not active)
AC50 [9]: 26 µM (active)

Cc1cc2nc3n(c2cc1C)CC1CC(C(=O)NCCc2cccs2)N(C)C31 (stereo not drawn)
EC50 (cells [15]): > 29.9 µM (inactive)
IC50 [16]: 8.5 µM (active)
IC50 (cells [17]): > 29.9 µM (inactive)
EC50 [18]: 2 µM (active)

Cc1nn(CCc2nnc(S)n2-c2cccc(Cl)c2)c(C)c1[N+](=O)[O-]
IC50 (Beta-lactamase [10]): > 59.6 µM (inactive)
IC50 (Beta-lactamase [11]): > 59.6 µM (inactive)
IC50 (Beta-lactamase [12]): > 59.6 µM (inactive)

C[C@H]1CN([C@@H](C)CO)C(=O)c2cccc(NC(=O)c3ccncc3)c2O[C@@H]1CN(C)Cc1cccc(Cl)c1
AC50 [19]: 0.0155 µM (active)

O=C(NCCn1cc(SCc2ccccc2F)c2ccccc21)c1c(F)cccc1F
IC50 [1]: 38.4 µM (inactive)
IC50 [2]: 3.49 µM (active)
EC50 [4]: > 29.9 µM (inactive)
EC50 [5]: > 29.9 µM (inactive)

O=C(O)[C@H]1CCCC[C@H]1C(=O)NCCc1ccccc1
EC50 (cells [15]): > 29.9 µM (inactive)
IC50 [16]: 7.35 µM (active)
IC50 (cells [17]): > 29.9 µM (inactive)
EC50 [18]: 0.37 µM (active)

S=C(c1ccc(OCc2ccccc2)cc1)N1CCCC1
IC50 [20]: 11.1 µM (active)
IC50 (Caspase-3): 8.38 µM (active)
IC50 [21]: 14 µM (active)
IC50 [22]: 3.69 µM (active)
IC50 [8]: > 9.98 µM (inactive)

C[C@@H]1CCCCO[C@H](CN(C)C(=O)Nc2ccc(C(F)(F)F)cc2)[C@@H](C)CN([C@@H](C)CO)C(=O)c2cc(NS(=O)(=O)c3ccc(F)cc3)ccc2O1
AC50 [23]: > 70 µM (inactive)
AC50 (Paired box protein Pax-8): 4.88 µM (active)
